Experimental data as given in patent publication US20120052056A1, “COMPOSITION FOR IMPROVING BLOOD CIRCULATION CONTAINING FERMENTED TEA, AND PHARMACEUTICAL AND HEALTH-FOOD COMPOSITIONS COMPRISING THE SAME” (priority 2009, published 2012).

System: rats fed high-cholesterol diet inducing hyperlipidemia
Test: Reduction in the serum and liver lipid levels in animal model
Type: in vivo
Details: 200 mg/kg oral once a day for 4 weeks with hyperlipidemia-inducing diet
Procedure: Eight 8-week-old female rats weighing 250-300 g were housed in each polycarbonate cage under a 12 hr light/12 hr dark cycle at a constant temperature of 22±2° C. and a relative humidity of 55±15%. The animals were fed with a normal diet and a high-cholesterol diet and given drinking water ad libitum. The test animals were divided into four groups: a normal group, a control group, a positive control group, and a test group. The normal group was provided only with general feed, the control group was fed with a normal diet containing 1% cholesterol and 0.5% cholic acid to cause hyperlipidemia, and the positive control group was administered with fenofibric acid (200 mg/kg) that is used as an agent for treating hyperlipidemia, in which the fenofibric acid was suspended in 1% methyl cellulose (MC) and administered orally. The test group was administered orally with the post-fermented tea extract and the green tea extract every day together with a hyperlipidemia-inducing diet, in which the post-fermented tea extract and the green tea extract (200 mg/kg) were provided by oral administration once a day for 4 weeks. After the rats of each group were fasted for 12 hours, a blood sample was taken from the orbital vein and centrifuged at 10000 rcf for 10 minutes. The resulting serum was used to evaluate blood total cholesterol, LDL cholesterol and HDL-cholesterol levels. The rat's liver was collected and used to evaluate the liver cholesterol and triglyceride levels. The above analysis was carried out using an automatic blood analyzer and a Roche diagnostic kit, and the results of the analysis are shown in Table 4 (serum lipids) below and Table 5 (liver lipids).

## CC(C)(Oc1ccc(C(=O)c2ccc(Cl)cc2)cc1)C(=O)O [Positive control group, fenofibric acid]
liver
  Liver lipids: Total cholesterol: 15.43 ± 0.52 µg/mg
  Liver lipids: Triglyceride: 185.39 ± 23.84 µg/mg
serum
  Serum lipids: HDL-cholesterol: 87.89 ± 6.84 mg/dL
  Serum lipids: LDL-cholesterol: 75.34 ± 2.80 mg/dL
  Serum lipids: Total cholesterol: 112.42 ± 13.33 mg/dL
